For this assay, the target named is S1P1 receptors (Homo sapiens, UniProt P21453). The assay can be described thus: 35S-GTPyS binding assay. The class given is biochemical. Conditions: 35S-GTPyS binding on membranes; compound 0.1 nM-10 μM; 10 μM S1P as 100% maximum efficacy; 90 min at room temperature. The method, then: The effect of the compounds was measured using a 35S-GTPyS binding assay. Briefly, membranes were incubated in a buffer containing 20 mM HEPES pH 7.4, 100 mM NaCl, 10 mM MgCl2, 10 μM GDP, 50 μg/ml saponin and 0.2% fatty acid-free BSA at various concentrations (0.1 nM-10 μM) and 0.1 nM 35S-GTPyS. 10 μM S1P was used as 100% maximum efficacy. The assay was incubated for 90 min at room temperature with gentle mixing, and terminated by filtrating the reaction mixture through GF/C filter plates using the Manifold Filtration System. The filters were immediately washed with sodium phosphate pH 7.4 buffers. After drying the filter plates scintillant liquid were added to each well and 35S-GTPyS binding was measured on a Trilux Scintillation Counter.
Sequence of S1P1 receptors (P21453 whole entry): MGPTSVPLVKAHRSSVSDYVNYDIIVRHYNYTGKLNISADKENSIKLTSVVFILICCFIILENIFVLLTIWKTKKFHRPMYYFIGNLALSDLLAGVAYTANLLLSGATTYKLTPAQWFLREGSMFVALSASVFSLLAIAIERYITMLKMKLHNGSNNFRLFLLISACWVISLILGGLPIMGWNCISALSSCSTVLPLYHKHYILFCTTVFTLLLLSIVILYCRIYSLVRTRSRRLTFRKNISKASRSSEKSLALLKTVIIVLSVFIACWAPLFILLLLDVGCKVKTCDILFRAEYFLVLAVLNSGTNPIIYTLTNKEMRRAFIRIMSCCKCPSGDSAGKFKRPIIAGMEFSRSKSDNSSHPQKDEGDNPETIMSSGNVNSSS

From patent US20110311485A1, “1,2,4-OXADIAZOLE DERIVATIVES AND THEIR THERAPEUTIC USE” (ALMIRALL S.A., priority 2008, published 2011) come the findings set out here.

Each structure is given as a SMILES string.

As usually defined, the EC50 is the concentration that produces a half-maximal response. A high value points to lower potency in that assay. Molecule `CCn1nc(-c2nc(-c3ccc(S(N)(=O)=O)cc3)no2)c2c1CC(C)(C)CC2` [Example 5, 4-(5-(1-Ethyl-6,6-dimethyl-4,5,6,7-tetrahydro-1H-indazol-3-yl)-1,2,4-oxadiazol-3-yl)benzenesulfonamide] displayed an EC50 of 40 nM. This lies in the double-digit nanomolar range.

`CCn1nc(-c2nc(-c3ccc(N4CCN(CCC(=O)O)CC4)cc3)no2)c2c1CC(C)(C)CC2` [Example 8, 3-(4-(4-(5-(1-ethyl-6,6-dimethyl-4,5,6,7-tetrahydro-1H-indazol-3-yl)-1,2,4-oxadiazol-3-yl)phenyl)piperazin-1-yl)propanoic Acid]: a half-maximal effect (EC50) was put at 17 nM.

Turning to `CC1(C)CCc2c(-c3nc(-c4ccc(C(N)=O)cc4)no3)nn(Cc3ccccc3)c2C1` [Example 21, 4-(5-(1-Benzyl-6,6-dimethyl-4,5,6,7-tetrahydro-1H-indazol-3-yl)-1,2,4-oxadiazol-3-yl)benzamide], the response was half-maximal at 18 nM (EC50).

For the molecule `CCn1nc(-c2nc(-c3ccncc3C)no2)c2c1CC(C)(C)CC2` [Example 36, 5-(1-Ethyl-6,6-dimethyl-4,5,6,7-tetrahydro-1H-indazol-3-yl)-3-(3-methylpyridin-4-yl)-1,2,4-oxadiazole], the midpoint of the response, the EC50, lay at 48 nM.

Take `CCn1nc(-c2nc(-c3ccc(CCC(=O)O)cc3C)no2)c2c1CC(C)(C)CC2` [Example 42, 3-(4-(5-(1-Ethyl-6,6-dimethyl-4,5,6,7-tetrahydro-1H-indazol-3-yl)-1,2,4-oxadiazol-3-yl)-3-methylphenyl)propanoic Acid]: the response was half-maximal at 16 nM (EC50).

Molecule `CCn1nc(-c2nc(-c3ccc(CCN)cc3C)no2)c2c1CC(C)(C)CC2` [Example 48, 2-(4-(5-(1-Ethyl-6,6-dimethyl-4,5,6,7-tetrahydro-1H-indazol-3-yl)-1,2,4-oxadiazol-3-yl)-3-methylphenyl)ethanamine] had an EC50 of 8 nM.

As to `CCc1cc(-c2noc(-c3nn(CC(F)(F)F)c4c3CCC(C)(C)C4)n2)c(C)nc1O` [Example 56, 5-(5-(6,6-Dimethyl-1-(2,2,2-trifluoroethyl)-4,5,6,7-tetrahydro-1H-indazol-3-yl)-1,2,4-oxadiazol-3-yl)-3-ethyl-6-methylpyridin-2-ol], a half-maximal effect (EC50) was put at 31 nM.

Consider `CCn1nc(-c2nc(-c3ccc4c(c3)CCC(NCC(=O)O)C4)no2)c2c1CC(C)(C)CC2` (stereo not drawn) [Example 68, 2-(6-(5-(1-Ethyl-6,6-dimethyl-4,5,6,7-tetrahydro-1H-indazol-3-yl)-1,2,4-oxadiazol-3-yl)-1,2,3,4-tetrahydronaphthalen-2-ylamino)ethanoic Acid], for which the EC50 was 1.9 nM. This EC50 is about 16-fold lower than that of the molecule before.

For `Cc1cc(-c2noc(-c3noc4c3CCC(C)(C)C4)n2)cc(C)c1CCNCC(=O)O` [Example 74], the EC50 came to 1.7 nM. The EC50 values of the last two molecules are within 1.5-fold of each other.

With `Cc1cc(-c2noc(-c3nn(C)c4c3CCC(C)(C)C4)n2)cc(C)c1CCN1CC(C(=O)O)C1` [Example 91, 1-(2,6-Dimethyl-4-(5-(1,6,6-trimethyl-4,5,6,7-tetrahydro-1H-indazol-3-yl)-1,2,4-oxadiazol-3-yl)phenethyl)azetidine-3-carboxylic Acid], the response was half-maximal at 16 nM (EC50).

For `CCn1nc(-c2nc(-c3ccc(S(=O)(=O)NCCC(=O)O)c(Cl)c3)no2)c2c1CC(C)(C)CC2` [Example 97, 3-(2-Chloro-4-(5-(1-ethyl-6,6-dimethyl-4,5,6,7-tetrahydro-1H-indazol-3-yl)-1,2,4-oxadiazol-3-yl)phenylsulfonamido)propanoic Acid], the EC50 turned out to be 26 nM.

`CCn1nc(-c2noc(-c3ccncc3)n2)c2c1CC(C)(C)CC2` [Example 99, 3-(1-Ethyl-6,6-dimethyl-4,5,6,7-tetrahydro-1H-indazol-3-yl)-5-(pyridin-4-yl)-1,2,4-oxadiazole]: a half-maximal effect (EC50) was put at 146 nM.

`Cc1cc(-c2noc(-c3nn(C)c4c3CCC(C)(C)C4)n2)cc(C)c1CCNC(C)(C)C` [Example 104, N-(2-{2,6-dimethyl-4-[5-(1,6,6-trimethyl-4,5,6,7-tetrahydro-1H-indazol-3-yl)-1,2,4-oxadiazol-3-yl]phenyl}ethyl)-2-methylpropan-2-amine] showed an EC50 of 8.5 nM.

Regarding `CCn1nc(-c2nc(-c3ccc(S(=O)(=O)NCCC(=O)O)cc3C)no2)c2c1CC(C)(C)CC2` [Example 117, N-({4-[5-(1-ethyl-6,6-dimethyl-4,5,6,7-tetrahydro-1H-indazol-3-yl)-1,2,4-oxadiazol-3-yl]-3-methylphenyl}sulfonyl)-beta-alanine], the EC50 was determined as 11.7 nM.

In turn, `CCn1nc(-c2nc(-c3cc(C)c(CC(N)=O)c(C)c3)no2)c2c1CC(C)(C)CC2` [Example 137, 2-{4-[5-(1-ethyl-6,6-dimethyl-4,5,6,7-tetrahydro-1H-indazol-3-yl)-1,2,4-oxadiazol-3-yl]-2,6-dimethylphenyl}acetamide] yielded an EC50 of 3.6 nM. Compared with the last molecule, the EC50 is about 3.2-fold lower.

For `CCc1cc(-c2noc(-c3nn(CC)c4c3CCC(C)(C)C4)n2)c(C)nc1CCN` [Example 138, (2-{3-ethyl-5-[5-(1-ethyl-6,6-dimethyl-4,5,6,7-tetrahydro-1H-indazol-3-yl)-1,2,4-oxadiazol-3-yl]-6-methylpyridin-2-yl}ethyl)amine], the EC50 amounted to 13 nM.

`Cc1cc(-c2nnc(-c3nn(C)c4c3CCC(C)(C)C4)s2)cc(C)c1OCCN` [Example 139, (2-{2,6-dimethyl-4-[5-(1,6,6-trimethyl-4,5,6,7-tetrahydro-1H-indazol-3-yl)-1,3,4-thiadiazol-2-yl]phenoxy}ethyl)amine]: the EC50 is 7.3 nM.

The molecule `Cc1cc(-c2noc(-c3nn(C)c4c3CCC(C)(C)C4)n2)cc(C)c1CCO` [Example 141, 2-{2,6-dimethyl-4-[5-(1,6,6-trimethyl-4,5,6,7-tetrahydro-1H-indazol-3-yl)-1,2,4-oxadiazol-3-yl]phenyl}ethanol] displayed an EC50 of 4.6 nM.

With `Cc1cc(-c2noc(-c3nn(C)c4c3CCC(C)(C)C4)n2)cc(C)c1CCN1CCC(CC(=O)O)CC1` [Example 143, [1-(2-{2,6-dimethyl-4-[5-(1,6,6-trimethyl-4,5,6,7-tetrahydro-1H-indazol-3-yl)-1,2,4-oxadiazol-3-yl]phenyl}ethyl)piperidin-4-yl]acetic acid], the EC50 came to 5.1 nM.

`Cc1cc(-c2noc(-c3nn(C)c4c3CCC(C)(C)C4)n2)cc(C)c1CCN[C@@H](C)C(=O)O` [Example 146, N-(2-{2,6-dimethyl-4-[5-(1,6,6-trimethyl-4,5,6,7-tetrahydro-1H-indazol-3-yl)-1,2,4-oxadiazol-3-yl]phenyl}ethyl)-L-alanine] had an EC50 of 1.4 nM.

In turn, `CCn1nc(-c2nc(-c3ccc(CCNCC(=O)O)c(C(F)(F)F)c3)no2)c2c1CC(C)(C)CC2` [Example 162, N-{2-[4-[5-(1-ethyl-6,6-dimethyl-4,5,6,7-tetrahydro-1H-indazol-3-yl)-1,2,4-oxadiazol-3-yl]-2-(trifluoromethyl)phenyl]ethyl}glycine] displayed a concentration giving a half-maximal response (EC50) of 0.56 nM.

For the molecule `Cc1cc(-c2noc(-c3noc4c3CCC(C)(C)C4)n2)cc(C)c1CC(O)CO` (stereo not drawn) [Example 170, 3-{4-[5-(6,6-dimethyl-4,5,6,7-tetrahydro-1,2-benzisoxazol-3-yl)-1,2,4-oxadiazol-3-yl]-2,6-dimethylphenyl}propane-1,2-diol], the response was half-maximal at 8.3 nM (EC50). Compared with the last molecule, the EC50 is about 15-fold higher.

Turning to `CCn1nc(-c2nc(-c3cccc4[nH]ccc34)no2)c2c1CC(C)(C)CC2` [Example 187, 5-(1-ethyl-6,6-dimethyl-4,5,6,7-tetrahydro-1H-indazol-3-yl)-3-(1H-indol-4-yl)-1,2,4-oxadiazole], the midpoint of the response, the EC50, lay at 10 nM. This EC50 and that of the molecule before are within 1.5-fold of each other.

Turning to `Cn1nc(-c2nnc(-c3ccc(CCN4CC(C(=O)O)C4)c(C(F)(F)F)c3)s2)c2c1CC(C)(C)CC2` [Example 198, 1-(2-(trifluoromethyl)-4-(5-(1,6,6-trimethyl-4,5,6,7-tetrahydro-1H-indazol-3-yl)-1,3,4-thiadiazol-2-yl)phenethyl)azetidine-3-carboxylic Acid], the EC50 came to 12 nM.
